The test system of assay [1] is IL-13. In words: Functional Th2-blocking activity: IL-13 expression in primary human Th2 cells (intracellular flow cytometry). The assay is classed as cell-based. The note with it: for Expression of Cytokine following Stimulation (% X Positive among CD4+ T cells) IL-13: 3 days co-culture with compound, PMA/ionomycin stimulation 6 hours; for % Normalized Reduction of Cytokine Expression From Baseline in CD4+ T Cells IL-13: normalized against vehicle control (water), 3 days co-culture, PMA/ionomycin 6 hours. An excerpt:
(§1) To produce T helper 2 (Th2) cells, peripheral blood mononuclear cells (PBMCs) were harvested from healthy donor leukopaks using Ficoll gradients. Naive CD4+ T cells were further isolated, then activated using TransAct or Dynabeads (depending on the donor). CD4+ T cells were activated for two days in the presence of low dose IL-2 (30 IU/mL) in X-VIVO-15 media containing 5% human AB serum (activation cycle). On the second day, the media was exchanged and supplemented with interleukin 4 (IL-4) (20 ng/mL), anti-IFN-gamma antibody (1 μg/mL), and interleukin 2 (IL-2) (rest cycle). The cells were cultured for an additional five days then evaluated for Prostaglandin D2 receptor 2 (DP2 or CRTH2) expression and IL-4 and interleukin 13 (IL-13) expression following phorbol myristate acetate (PMA)/ionomycin stimulation. If the expression of CRTH2 was >50%, the cells were frozen and used in Th2 IL-4/IL-13 bioactivity assays. If the expression of CRTH2 <50%, then the cells were restimulated using TransAct (or Dynabeads) and maintained on similar cycles of activation (2 days) and rest (5 days), until the expression of CRTH2 exceeded 50%. Typically, no more than 4 cycles are needed before the Th2 cells may be harvested and frozen.
(§2) For testing the ability of a compound or salt of the present disclosure to reduce the expression of IL-4 and IL-13 was tested in primary human Th2 cells, the abovementioned cells were thawed, then cultured for one day in IL-2 containing media. The Th2 cells were treated with compounds added at varying concentrations for three days, after which, the cells were washed, and stimulated with PMA/ionomycin for 6 hrs prior to readabout via intracellular flow cytometry.
(§3) The ability of a compound or salt of the present disclosure to reduce the expression of IL-4 and IL-13 was tested in primary human Th2 cells. Naive, primary human CD4+ T cells were isolated from healthy donors and differentiated into Th2 cells using a combination of IL-4 cytokine and anti-IFN-gamma antibody, based on a modified protocol from Scott et al (Activation of Th2 cells downregulates CRTh2 through an NFAT1 mediated mechanism. PLoS One. 2018 Jul. 3; 13(7):e0199156). Th2 cells were CRTH2+ and expressed IL-4 and IL-13 following PMA/ionomycin stimulation. Prior to PMA/ionomycin stimulation, Th2 cells were co-cultured with a compound or salt of the present disclosure for 3 days and then stimulated for 6 hours. Intracellular flow cytometry was performed to investigate the expression of IL-4 and IL-13 among stimulated CD4+ Th2 cells. The compound or salt was evaluated across a 2-log concentration range. Th2 cells were cultured in X-VIVO-15 media with human AB serum and supplemented with low dose IL-2 (30 IU/mL). The antibody panel that was used is listed below. All antibodies were obtained from Biolegend.
(§4) Description of Calculation for: (1) Expression of Cytokine following Stimulation (% X Positive among CD4+ T cells), and (2) % Normalized Reduction of Cytokine Expression From Baseline in CD4+ T Cells
(§5) The expression of IL-4 and IL-13 was measured based on positive gated fractions among CD4+ Th2 cells. The number is expressed as a positive percentage, determined based on the fluorescence-minus-one (FMO) control. The max percent is 100%. The normalized reduction value uses the vehicle control (water) to normalize against using the following percent change formula. (Cmpd: compound)
Background: In flow cytometry, cells or beads pass a laser one at a time.

The test system of assay [2] is IL-4. In words: Functional Th2-blocking activity: IL-4 expression in primary human Th2 cells (intracellular flow cytometry). The assay is classed as cell-based. Conditions: primary human CD4+ Th2 cells; for % Normalized Reduction of Cytokine Expression From Baseline in CD4+ T Cells IL-4: normalized against vehicle control (water), 3 days co-culture, PMA/ionomycin 6 hours; for Expression of Cytokine following Stimulation (% X Positive among CD4+ T cells) IL-4: 3 days co-culture with compound, PMA/ionomycin stimulation 6 hours.
Excerpt: as §1, §2, §3, §4, §5

The results in this text go back to patent US20260083701A1, “COMPOSITIONS, FORMULATIONS, AND METHODS FOR TREATMENT OF INFLAMMATORY CONDITIONS” (Oddity Labs, LLC, priority 2023, published 2026).

As to `COC(=O)c1sccc1-n1c(C)ccc1C` [VI-3, methyl 3-(2,5-dimethyl-1H-pyrrol-1-yl)thiophene-2-carboxylate], in assay [1], the “Expression of Cytokine following Stimulation (% X Positive among CD4+ T cells) IL-13” value is “C (C represents 14% to less than 18%)” and the “% Normalized Reduction of Cytokine Expression From Baseline in CD4+ T Cells IL-13” value (from here on “% Normalized Reduction … in CD4+ T Cells IL-13”) was “C (C represents 40% to less than 50%)”. Also, in assay [2], the “% Normalized Reduction of Cytokine Expression From Baseline in CD4+ T Cells IL-4” value (“% Normalized Reduction … in CD4+ T Cells IL-4” for short) is on record as “B (B represents 15% to less than 20%)” and the “Expression of Cytokine following Stimulation (% X Positive among CD4+ T cells) IL-4” value is listed as “B (B represents 30% to less than 35%)”.
For the compound `CN1c2c(nc(N)[nH]c2=O)NCC1CNc1ccc(C(=O)NC(CCC(=O)O)C(=O)O)cc1.[Ca+2]` (stereo not drawn) [VI-4, Levomefolate calcium, reference compound], in assay [1], the “Expression of Cytokine following Stimulation (% X Positive among CD4+ T cells) IL-13” value is reported as “C (C represents 14% to less than 18%)” and the “% Normalized Reduction … in CD4+ T Cells IL-13” value is on record as “B (B represents 30% to less than 40%)”. Besides, in assay [2], the “% Normalized Reduction … in CD4+ T Cells IL-4” value is on record as “B (B represents 15% to less than 20%)” and the “Expression of Cytokine following Stimulation (% X Positive among CD4+ T cells) IL-4” value is reported as “B (B represents 30% to less than 35%)”.
Turning to `Cc1ccc(C)n1-c1ccsc1C(=O)NC1CCCC1` [VI-5, N-cyclopenty1-3-(2,5-dimethy1-1H-pyrrol-1-yl)thiophene-2-carboxamide], in assay [1], the “Expression of Cytokine following Stimulation (% X Positive among CD4+ T cells) IL-13” value is “C (C represents 14% to less than 18%)” and the “% Normalized Reduction … in CD4+ T Cells IL-13” value is on record as “B (B represents 30% to less than 40%)”. Moreover, in assay [2], the “% Normalized Reduction … in CD4+ T Cells IL-4” value is given as “B (B represents 15% to less than 20%)” and the “Expression of Cytokine following Stimulation (% X Positive among CD4+ T cells) IL-4” value was “B (B represents 30% to less than 35%)”.
As for `Cn1nc(C(=O)NC(CCC(=O)O)C(=O)O)c2ccccc2c1=O` (stereo not drawn) [VI-6, 2-[(3-methyl-4-oxo-3,4-dihydrophthalazin-1-yl)formamido]pentanedioic acid], in assay [1], the “Expression of Cytokine following Stimulation (% X Positive among CD4+ T cells) IL-13” value is on record as “C (C represents 14% to less than 18%)” and the “% Normalized Reduction … in CD4+ T Cells IL-13” value is recorded as “B (B represents 30% to less than 40%)”. For the same compound, in assay [2], the “% Normalized Reduction … in CD4+ T Cells IL-4” value is “A (A represents 0% to less than 15%)” and the “Expression of Cytokine following Stimulation (% X Positive among CD4+ T cells) IL-4” value was “C (C represents 35% to less than 40%)”.
For `CC1=NN(c2cccc(Cl)c2)C(=O)/C1=C\Nc1cccc2c1C(=O)c1ccccc1C2=O` [VI-7, 1-({[1-(3-chlorophenyl)-3-methyl-5-oxo-1,5-dihydro-4H-pyrazol-4-ylidene]methyl}amino)anthra-9,10-quinone] the same measures were “C (C represents 14% to less than 18%)”, “B (B represents 30% to less than 40%)”, “D (D represents 25% or greater)” and “B (B represents 30% to less than 35%)”.
Consider `Cc1ccc(C)n1-c1ccsc1C(=O)N1CCOC(c2ccccc2)C1` (stereo not drawn) [VI-8, 4-[3-(2,5-dimethyl-1H-pyrrol-1-yl)thiophene-2-carbonyl]-2-phenylmorpholine], for which, in assay [1], the “Expression of Cytokine following Stimulation (% X Positive among CD4+ T cells) IL-13” value is recorded as “C (C represents 14% to less than 18%)” and the “% Normalized Reduction … in CD4+ T Cells IL-13” value was “C (C represents 40% to less than 50%)”. For the same compound, in assay [2], the “% Normalized Reduction … in CD4+ T Cells IL-4” value is recorded as “A (A represents 0% to less than 15%)” and the “Expression of Cytokine following Stimulation (% X Positive among CD4+ T cells) IL-4” value is given as “C (C represents 35% to less than 40%)”.
Consider `O=C(c1ccc(F)cc1F)C1(O)CCN(Cc2ccc3cnccc3c2)CC1` [VI-9, 4-(2,4-difluorobenzoyl)-1-[(isoquinolin-6-yl)methyl]piperidin-4-ol], for which, in assay [1], the “Expression of Cytokine following Stimulation (% X Positive among CD4+ T cells) IL-13” value is recorded as “C (C represents 14% to less than 18%)” and the “% Normalized Reduction … in CD4+ T Cells IL-13” value is recorded as “C (C represents 40% to less than 50%)”. In addition, in assay [2], the “% Normalized Reduction … in CD4+ T Cells IL-4” value was “D (D represents 25% or greater)” and the “Expression of Cytokine following Stimulation (% X Positive among CD4+ T cells) IL-4” value was “A (A represents 0% to less than 30%)”.
`Cc1ccc(CCNC(=O)c2ccc3c(=O)n(-c4ccc(C)cc4)c(=O)[nH]c3c2)cc1` [VI-10, 3-(4-methylpheny1)-N-[2-(4-methylphenyl)ethyl]-2,4-dioxo-1,2,3,4-tetrahydroquinazoline-7-carboxamide]: in assay [1], the “Expression of Cytokine following Stimulation (% X Positive among CD4+ T cells) IL-13” value is “C (C represents 14% to less than 18%)” and the “% Normalized Reduction … in CD4+ T Cells IL-13” value was “B (B represents 30% to less than 40%)”. Besides, in assay [2], the “% Normalized Reduction … in CD4+ T Cells IL-4” value is reported as “C (C represents 20% to less than 25%)” and the “Expression of Cytokine following Stimulation (% X Positive among CD4+ T cells) IL-4” value was “B (B represents 30% to less than 35%)”.
For `O=C(N/N=C/c1cccc(OCc2ccccc2)c1)c1cc2ccccc2cc1O` [VI-11, N′-[3-(benzyloxy)benzylidene]-3-hydroxy-2-naphthohydrazide], in that order: “D (D represents 18% or greater)”, “A (A represents 0% to less than 30%)”, “A (A represents 0% to less than 15%)” and “D (D represents 40% or greater)”.
For `COc1ccc(-c2cc(=O)c3c(O)cc(O[C@@H]4O[C@H](CO)[C@@H](O)[C@H](O)[C@H]4O)cc3o2)cc1O` [VI-12, Diosmetin-7-O-beta-D-glucopyranoside] the same measures were “A (A represents 0% to less than 10%)”, “D (D represents 50% or greater)”, “D (D represents 25% or greater)” and “A (A represents 0% to less than 30%)”.
As for `O=C(Oc1ccc(OC(=O)c2ccc3c(c2)C(=O)OC3=O)cc1)c1ccc2c(c1)C(=O)OC2=O` [VI-13, 4-(1,3-dioxo-1,3-dihydro-2-benzofuran-5-carbonyloxy)phenyl 1,3-dioxo-1,3-dihydro-2-benzofuran-5-carboxylate], in assay [1], the “Expression of Cytokine following Stimulation (% X Positive among CD4+ T cells) IL-13” value is “C (C represents 14% to less than 18%)” and the “% Normalized Reduction … in CD4+ T Cells IL-13” value is given as “B (B represents 30% to less than 40%)”. Besides, in assay [2], the “% Normalized Reduction … in CD4+ T Cells IL-4” value is reported as “C (C represents 20% to less than 25%)” and the “Expression of Cytokine following Stimulation (% X Positive among CD4+ T cells) IL-4” value is recorded as “B (B represents 30% to less than 35%)”.
Turning to `O=C1Cc2cc(-c3csc(Cc4ccc(F)cc4)n3)cc3c2N1CCC3` [VI-14, 8-(2-(4-fluorobenzyl)thiazol-4-yl)-5,6-dihydro-4H-pyrrolo[3,2,1-ij]quinolin-2(1H)-one], in assay [1], the “Expression of Cytokine following Stimulation (% X Positive among CD4+ T cells) IL-13” value was “B (B represents 10% to less than 14%)” and the “% Normalized Reduction … in CD4+ T Cells IL-13” value is recorded as “D (D represents 50% or greater)”. In assay [2], the “% Normalized Reduction … in CD4+ T Cells IL-4” value is on record as “C (C represents 20% to less than 25%)” and the “Expression of Cytokine following Stimulation (% X Positive among CD4+ T cells) IL-4” value is given as “B (B represents 30% to less than 35%)”.
